Measured values reported in PubChem BioAssay (NCI).
Where “and” joins values, the source holds several entries; their conditions need not be identical. Identical values can stand only once.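 48-hour exposure; five concentrations; linearly interpolated endpoints. At the GI50, growth is halved. The concentration for full growth arrest is given as TGI.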

Key:
Assay in all cases: inhibition of tumour cell growth, NCI panel, 48 h
[1] = tested on: BT-549 breast
[2] = tested on: HCT-116 colon
[3] = tested on: HT29 colon
[4] = tested on: IGROV1 ovarian
[5] = tested on: M14 melanoma
[6] = tested on: NCI-H226 lung
[7] = tested on: OVCAR-4 ovarian
[8] = tested on: SK-OV-3 ovarian
[9] = tested on: TK-10 renal
[10] = tested on: UO-31 renal

Structure (SMILES) | GI50 [1] [µM] | TGI [1] [µM] | GI50 [2] [µM] | TGI [2] | GI50 [3] [µM] | GI50 [4] [µM] | TGI [4] [µM] | GI50 [5] [µM] | TGI [5] [µM] | GI50 [6] [µM] | TGI [6] [µM] | GI50 [7] [µM] | TGI [7] [µM] | GI50 [8] [µM] | TGI [8] [µM] | GI50 [9] [µM] | TGI [9] [µM] | GI50 [10] [µM] | TGI [10] | TGI [3] [µM]
COC(=O)[C@@H](OC)[C@@H]1Cc2cc3cc(OC4CC(OC5CC(O)C(O)C(C)O5)C(O)C(C)O4)c(C)c(O)c3c(O)c2C(=O)[C@H]1OC1CC(OC2CC(OC3CC(C)(O)C(O)C(C)O3)C(O)C(C)O2)C(O)C(C)O1 (stereo partly specified) | 0.0186 | 0.0974 | 0.0246 | > 16.5 µM | 0.039 | 0.0299 | > 16.5 | 0.0382 | 0.157 | 0.0384 | 0.125 | 0.0413 | 0.553 | 0.0811 | > 16.5 | 0.0438 | > 16.5 | 0.0335 | 0.12 µM | 
CC(=O)/C(=C\c1c(-c2ccccc2)[nH]c2ccccc12)S(=O)(=O)c1ccccc1 | 1.76 | 11 | 0.727 | 2 µM | 0.576 | 1.51 | 4.37 | 0.513 | 2.15 | 1.92 | 5.21 | 3.53 | > 54.2 | 2.81 | 19.4 | 3.44 | > 41.1 | 1.58 | 3.54 µM | 2.32
COc1ccc2nccc(/C=C/c3ccnc4ccc(OC)cc34)c2c1 | > 63.4 | > 100 | 38.7 | > 100 µM | > 69.9 | 28.4 | 75.7 | > 42 | > 56 | > 100 | > 100 | 21.7 | > 52.5 | > 77 | > 100 | > 45.2 | > 63.4 | > 100 | > 100 µM | > 100
C[C@]12CC[C@@H]3c4ccc(O)cc4CC[C@H]3[C@@H]1CC[C@@H]2NS(=O)(=O)c1ccc2ccccc2c1 | 2.92 | 8.59 | 2.98 | 10.6 µM | 2.47 | 4.1 | 17.2 | 3.2 | 10.5 | 2.98 | 11.5 | 1.98 | 9.36 | 5.79 | 36.4 | 3.52 | 12.8 | 1.83 | 5.57 µM | 6.11
Nc1ncnc2nn(C3OC(CO)C(O)C3O)nc12 (stereo unspecified) |  | > 100 |  | 39.1 µM |  |  | 39.1 |  | > 62.8 |  | 40.5 |  | > 100 |  | 16.6 |  | > 35.4 |  | 49 µM | > 100
C[C@@](O)(/C=C/[C@H]1CC=CC(=O)O1)[C@@H](C[C@@H](O)\C=C/C=C\C=C\CO)OP(=O)(O)O |  | 36.6 | 4.1 | 8.87 µM and 11 µM |  |  | 15.4 |  | 2.69 |  | 18.7 |  | 25.5 |  | 31.4 |  | 46.6 | 9.39 | 19.5 µM and 22 µM | 6.33
Cc1cc2c(=O)[nH]c(N)nc2nc1C |  | > 100 |  | > 100 µM |  |  | > 100 |  | > 100 |  | > 100 |  | > 100 |  | > 100 |  | > 100 |  | > 100 µM | > 100
